# According to PubChem BioAssay (NCI):
#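 In this assay, cells in 96-well plates receive the compound at five concentrations for 48 hours. Endpoints are linearly interpolated between the surrounding concentrations. TGI denotes the concentration required for complete inhibition of growth.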
# Legend:
# Assay in all cases: inhibition of tumour cell growth, NCI panel, 48 h
# SF-268 CNS = test system: SF-268 CNS
# HS 578T breast = test system: HS 578T breast
# SK-MEL-2 melanoma = test system: SK-MEL-2 melanoma
# CAKI-1 renal = test system: CAKI-1 renal
# NCI-H226 lung = test system: NCI-H226 lung
# M14 melanoma = test system: M14 melanoma
# SN12C renal = test system: SN12C renal
# SW-620 colon = test system: SW-620 colon
# OVCAR-4 ovarian = test system: OVCAR-4 ovarian
# PC-3 prostate = test system: PC-3 prostate
# SK-MEL-28 melanoma = test system: SK-MEL-28 melanoma
# COLO 205 colon = test system: COLO 205 colon
# RXF 393 renal = test system: RXF 393 renal
# MDA-N = test system: MDA-N
# ACHN renal = test system: ACHN renal
# HCC-2998 colon = test system: HCC-2998 colon
SMILES,TGI (SF-268 CNS),TGI (HS 578T breast),TGI (SK-MEL-2 melanoma),TGI (CAKI-1 renal),TGI (NCI-H226 lung),TGI (M14 melanoma),TGI (SN12C renal),TGI (SW-620 colon),TGI (OVCAR-4 ovarian),TGI (PC-3 prostate),TGI (SK-MEL-28 melanoma),TGI (COLO 205 colon),TGI (RXF 393 renal),TGI (MDA-N),TGI (ACHN renal),TGI (HCC-2998 colon)
O=C(Nc1nncs1)NS(=O)(=O)n1cnc2ccccc21,> 100 µM,> 100 µM,> 100 µM,> 100 µM,> 100 µM,> 100 µM,> 100 µM,> 100 µM,> 100 µM,> 100 µM,> 100 µM,> 100 µM,> 100 µM,> 100 µM,> 100 µM,> 100 µM
CCOC(=O)/C=C(\C(=O)OCC)n1cnc2c(N)ncnc21,37.6 µM,51.5 µM,30.7 µM,2.86 µM,13 µM,22.7 µM,10.8 µM,8.49 µM,> 48.7 µM,26.1 µM,27.8 µM,4.6 µM,26.4 µM,29.3 µM,18.5 µM,30.2 µM
COc1cc(-c2c3c([nH]c(=O)c2C#N)-c2cc([N+](=O)[O-])ccc2CCC3)cc(OC)c1OC,> 100 µM,73.3 µM,44.3 µM,87.9 µM,89 µM,> 100 µM,46.7 µM,> 100 µM,> 100 µM,> 100 µM,> 100 µM,43.3 µM,82.8 µM,55 µM,70.6 µM,46.1 µM
c1ccc2c(c1)CCN1CCc3c([nH]c4ccccc34)C21 (centres undefined),> 100 µM,> 100 µM,57.1 µM,> 100 µM,97.5 µM,34 µM,> 100 µM,> 100 µM,> 100 µM,98.5 µM,48.8 µM,37.8 µM,72.3 µM,73.8 µM,> 100 µM,34 µM
O=C(O)CSc1nnc(CCCCCCCCc2nnc(SCC(=O)O)o2)o1,> 100 µM,> 100 µM,> 100 µM,> 100 µM,> 100 µM,> 100 µM,> 100 µM,> 100 µM,> 100 µM,> 100 µM,> 100 µM,> 100 µM,> 100 µM,> 100 µM,> 100 µM,> 100 µM
COc1ccc(N2CCN(Cc3c(C(C)=O)[n+](=O)c4ccccc4n3[O-])CC2)cc1,> 100 µM,> 100 µM,> 100 µM,> 100 µM,> 100 µM,> 100 µM,> 100 µM,> 100 µM,> 100 µM,> 100 µM,> 100 µM,> 100 µM,83.4 µM,> 100 µM,> 100 µM,> 100 µM
COc1cc(CNC(=O)[C@H](Cc2ccc(O)cn2)NC(C)=O)cc(OC)c1,> 100 µM,> 100 µM,> 100 µM,> 100 µM,> 100 µM,> 100 µM,> 100 µM,> 100 µM,> 100 µM,> 100 µM,> 100 µM,> 100 µM,> 100 µM,> 100 µM,> 100 µM,> 100 µM
CC(=O)Nc1ccc(S(=O)(=O)[N-]C2C(=O)c3ccccc3C(=O)C2[n+]2ccccc2)cc1 (centres undefined),35.5 µM,62.4 µM,25.3 µM,> 100 µM,> 100 µM,27.4 µM,> 100 µM,32.9 µM,28.9 µM,46.1 µM,30.1 µM,> 100 µM,30.4 µM,33 µM,30.7 µM,43.6 µM
CCCN1CN(c2ccccc2)C2(CCN(CCCC(=O)c3ccc(F)cc3)CC2)C1=O,23.8 µM,34.1 µM,25 µM,41.1 µM,22.3 µM,25.1 µM,15.5 µM,20.4 µM,20.2 µM,27.6 µM,34.3 µM,0.348 µM,37 µM,23 µM,12.9 µM,20.8 µM
